Results as given in the CheMixHub ionic liquid set.
± gives the uncertainty stated by the source.

Assay: xn = mol fraction of the nth substance listed

CC#N + CCCC[n+]1ccn(C)c1.F[B-](F)(F)F
Settings | electrical conductivity, 298.15 K [S/m] | viscosity, 298.15 K [mPa·s] | viscosity, 333.15 K [mPa·s]
100 kPa, x2 = 0 | 0.0002 ± 0.0001 | 0.37 ± 0.0047 | –
101 kPa, x1 = 1 | – | – | 0.257 ± 0.004

CCCC[n+]1ccn(C)c1.F[P-](F)(F)(F)(F)F + CC(=O)c1ccccc1
Settings | viscosity [mPa·s]
313.15 K, 100 kPa, x2 = 0 | 97 ± 19

CCCCCCCCCC[n+]1ccn(C)c1.[Br-] + CCCCCCCCn1cc[n+](C)c1.[Br-] + O
298.15 K, 101 kPa
Settings | electrical conductivity [S/m]
x2 = 0.001457, x1 = 0.0002702 | 0.7 ± 0.02
x2 = 0.002534, x1 = 0.0004683 | 1.01 ± 0.02
x2 = 0.003323, x1 = 0.0006123 | 1.2 ± 0.02
x2 = 0.003985, x1 = 0.0007203 | 1.33 ± 0.03
x2 = 0.00477, x1 = 0.0008642 | 1.45 ± 0.03
x2 = 0.005466, x1 = 0.0009901 | 1.55 ± 0.03

CC#N + CCCCCCCC(=O)[O-].c1c[nH+]c[nH]1
101.3 kPa, x1 = 1
Settings | viscosity [mPa·s]
298.15 K | 0.333 ± 0.013
323.15 K | 0.223 ± 0.01

CCCC[n+]1ccn(C)c1.O=S(=O)([N-]S(=O)(=O)C(F)(F)F)C(F)(F)F + O=C1CCCCO1
100 kPa, frequency 0.01 MHz, x1 = 1
Settings | electrical conductivity [S/m]
298.15 K | 0.4 ± 0.016
318.15 K | 0.733 ± 0.029

CCCCCC[N+](CC)(CC)CC.O=S(=O)([N-]S(=O)(=O)C(F)(F)F)C(F)(F)F + O
101 kPa, x2 = 0.1627
Settings | viscosity [mPa·s]
293.25 K | 79.3 ± 1.7
308.05 K | 44.04 ± 0.92

CN(C)C=O + CCCCCCCCn1cc[n+](C)c1.O=S(=O)([N-]S(=O)(=O)C(F)(F)F)C(F)(F)F
101 kPa, x2 = 0
Settings | viscosity [mPa·s]
293.15 K | 0.881 ± 0.035
303.15 K | 0.771 ± 0.036
313.15 K | 0.668 ± 0.037
323.15 K | 0.605 ± 0.038
333.15 K | 0.553 ± 0.037
353.15 K | 0.479 ± 0.029
363.15 K | 0.447 ± 0.023

CCCC[n+]1ccn(C)c1.F[P-](F)(F)(F)(F)F + c1ccccc1
Settings | viscosity [mPa·s]
313.2 K, 100 kPa, x2 = 0.6008 | 7.7 ± 0.4

CCCC[n+]1ccn(C)c1.F[P-](F)(F)(F)(F)F + O=C1CCCC1
Settings | viscosity [mPa·s]
298.15 K, 101.3 kPa, x2 = 0 | 270 ± 34

CC[n+]1ccn(C)c1.O=S(=O)([O-])O + Cc1ncc(C[n+]2csc(CCO)c2C)c(N)n1.Cl.[Cl-] + O
viscosity [mPa·s], 100 kPa
Settings | 293.15 K | 298.15 K | 303.15 K | 308.15 K | 313.15 K | 318.15 K
x2 = 0, x1 = 0.0009002 | 1.05 ± 0.1 | 0.94 ± 0.1 | 0.84 ± 0.1 | 0.76 ± 0.1 | 0.69 ± 0.1 | 0.65 ± 0.1
x2 = 0, x1 = 0.001799 | 1.07 ± 0.1 | 0.95 ± 0.1 | 0.85 ± 0.1 | 0.77 ± 0.1 | 0.7 ± 0.1 | 0.64 ± 0.1
x2 = 0, x1 = 0.002696 | 1.08 ± 0.1 | 0.96 ± 0.1 | 0.86 ± 0.1 | 0.78 ± 0.1 | 0.71 ± 0.1 | 0.64 ± 0.1
x2 = 0.0002717, x1 = 0.0008999 | 1.06 ± 0.1 | 0.95 ± 0.1 | 0.85 ± 0.1 | 0.77 ± 0.1 | 0.7 ± 0.1 | 0.66 ± 0.1
x2 = 0.0002739, x1 = 0.001798 | 1.08 ± 0.1 | 0.96 ± 0.1 | 0.86 ± 0.1 | 0.78 ± 0.1 | 0.71 ± 0.1 | 0.65 ± 0.1
x2 = 0.0002783, x1 = 0.002695 | 1.09 ± 0.1 | 0.97 ± 0.1 | 0.87 ± 0.1 | 0.79 ± 0.1 | 0.72 ± 0.1 | 0.65 ± 0.1
x2 = 0.0005451, x1 = 0.0008997 | 1.07 ± 0.1 | 0.96 ± 0.1 | 0.85 ± 0.1 | 0.78 ± 0.1 | 0.71 ± 0.1 | 0.67 ± 0.1
x2 = 0.0005496, x1 = 0.001798 | 1.09 ± 0.1 | 0.97 ± 0.1 | 0.87 ± 0.1 | 0.79 ± 0.1 | 0.72 ± 0.1 | 0.66 ± 0.1
x2 = 0.0005575, x1 = 0.002694 | 1.1 ± 0.1 | 0.98 ± 0.1 | 0.88 ± 0.1 | 0.8 ± 0.1 | 0.73 ± 0.1 | 0.66 ± 0.1
x2 = 0.0008249, x1 = 0.001797 | 1.1 ± 0.1 | 0.98 ± 0.1 | 0.88 ± 0.1 | 0.8 ± 0.1 | 0.73 ± 0.1 | 0.67 ± 0.1
x2 = 0.0008327, x1 = 0.002693 | 1.11 ± 0.1 | 0.99 ± 0.1 | 0.89 ± 0.1 | 0.81 ± 0.1 | 0.73 ± 0.1 | 0.67 ± 0.1
x2 = 0.0008356, x1 = 0.0008994 | 1.08 ± 0.1 | 0.97 ± 0.1 | 0.86 ± 0.1 | 0.79 ± 0.1 | 0.72 ± 0.1 | 0.68 ± 0.1
x2 = 0.00109, x1 = 0.0008992 | 1.09 ± 0.1 | 0.98 ± 0.1 | 0.87 ± 0.1 | 0.8 ± 0.1 | 0.73 ± 0.1 | 0.68 ± 0.1
x2 = 0.001102, x1 = 0.001797 | 1.11 ± 0.1 | 0.98 ± 0.1 | 0.89 ± 0.1 | 0.81 ± 0.1 | 0.74 ± 0.1 | 0.68 ± 0.1
x2 = 0.001112, x1 = 0.002693 | 1.12 ± 0.1 | 1 ± 0.1 | 0.9 ± 0.1 | 0.81 ± 0.1 | 0.74 ± 0.1 | 0.68 ± 0.1
x2 = 0.001362, x1 = 0.000899 | 1.1 ± 0.1 | 0.99 ± 0.1 | 0.88 ± 0.1 | 0.8 ± 0.1 | 0.74 ± 0.1 | 0.69 ± 0.1
x2 = 0.001376, x1 = 0.001796 | 1.11 ± 0.1 | 0.99 ± 0.1 | 0.9 ± 0.1 | 0.82 ± 0.1 | 0.75 ± 0.1 | 0.69 ± 0.1
x2 = 0.001389, x1 = 0.002692 | 1.13 ± 0.1 | 1.01 ± 0.1 | 0.91 ± 0.1 | 0.82 ± 0.1 | 0.75 ± 0.1 | 0.69 ± 0.1
x2 = 0.001634, x1 = 0.0008987 | 1.1 ± 0.1 | 1 ± 0.1 | 0.89 ± 0.11 | 0.81 ± 0.1 | 0.75 ± 0.1 | 0.7 ± 0.11
x2 = 0.001651, x1 = 0.001796 | 1.12 ± 0.1 | 1 ± 0.1 | 0.91 ± 0.1 | 0.83 ± 0.1 | 0.76 ± 0.1 | 0.7 ± 0.1
x2 = 0.001665, x1 = 0.002691 | 1.14 ± 0.1 | 1.02 ± 0.1 | 0.92 ± 0.1 | 0.83 ± 0.1 | 0.76 ± 0.1 | 0.7 ± 0.1
x2 = 0.001907, x1 = 0.0008985 | 1.11 ± 0.1 | 1.01 ± 0.1 | 0.9 ± 0.1 | 0.82 ± 0.1 | 0.76 ± 0.1 | 0.71 ± 0.1
x2 = 0.001926, x1 = 0.001795 | 1.13 ± 0.1 | 1.01 ± 0.1 | 0.92 ± 0.1 | 0.84 ± 0.1 | 0.77 ± 0.1 | 0.71 ± 0.1
x2 = 0.001943, x1 = 0.00269 | 1.15 ± 0.1 | 1.03 ± 0.1 | 0.93 ± 0.1 | 0.84 ± 0.1 | 0.77 ± 0.1 | 0.71 ± 0.1

CC#N + CCCC[n+]1ccn(C)c1.[Cl-]
Settings | viscosity [mPa·s]
308.15 K, 101 kPa, x1 = 1 | 0.31

CCCCC[P+](CC)(CC)CC.O=S(=O)([N-]S(=O)(=O)C(F)(F)F)C(F)(F)F + O=S(=O)([N-]S(=O)(=O)C(F)(F)F)C(F)(F)F.[Li+]
101.33 kPa
Settings | electrical conductivity [S/m] | viscosity [mPa·s]
300.3 K, x2 = 0.39 | – | 1100 ± 55
324.2 K, x2 = 0.39 | 0.081 ± 0.001 | 200 ± 7
330.2 K, x2 = 0.39 | 0.11 ± 0.01 | 150 ± 5
336.3 K, x2 = 0.25 | 0.37 ± 0.01 | 42 ± 1
341.2 K, x2 = 0.25 | – | 34 ± 1
348.2 K, x2 = 0.25 | 0.52 ± 0.01 | 27 ± 1
361.2 K, x2 = 0.39 | – | 37 ± 1
361.3 K, x2 = 0.39 | 0.36 ± 0.01 | –

CCCCCCCCCCCCCCCCCC[n+]1ccn(C)c1.O=S(=O)([N-]S(=O)(=O)C(F)(F)F)C(F)(F)F + CCCCCCCCCCCCCC[n+]1ccn(C)c1.O=S(=O)([N-]S(=O)(=O)C(F)(F)F)C(F)(F)F
Settings | viscosity [mPa·s]
323 K, 101 kPa, x2 = 0.7675 | 62.9 ± 1.3

CCCCCCCCCCCCCCCC[n+]1ccn(C)c1.[Cl-] + CCCCCCCCCCCC[N+](C)(C)C.[Br-] + O
100 kPa, frequency 0.002 MHz
Settings | electrical conductivity [S/m]
303.15 K, x1 = 5.946e-05, x2 = 1.478e-05 | 0.025 ± 0.00051
303.15 K, x1 = 7.207e-05, x2 = 1.802e-05 | 0.0286 ± 0.00059
303.15 K, x1 = 9.712e-05, x2 = 2.433e-05 | 0.0355 ± 0.00073
313.15 K, x1 = 6.13e-06, x2 = 2.433e-05 | 0.0202 ± 0.00041
313.15 K, x1 = 7.75e-06, x2 = 1.802e-05 | 0.0184 ± 0.00037
313.15 K, x1 = 2.09e-05, x2 = 2.34e-06 | 0.0146 ± 0.0003
323.15 K, x1 = 9.19e-06, x2 = 2.126e-05 | 0.0259 ± 0.00052
